Source: patent US7265139B2, “RXR activating molecules” (Incyte San Diego Inc., priority 2001, dated 2007)

Experiments:
RXR receptor = target: T1, RXR receptor (Homo sapiens, UniProt P19793); assay: RXR activation (transient transfection reporter assay); type: cell-based; conditions: 1 μM compared to 9-cis-RA at equal concentration
T1 construct: expressed in transfected cells
T1 sequence (P19793 1-462): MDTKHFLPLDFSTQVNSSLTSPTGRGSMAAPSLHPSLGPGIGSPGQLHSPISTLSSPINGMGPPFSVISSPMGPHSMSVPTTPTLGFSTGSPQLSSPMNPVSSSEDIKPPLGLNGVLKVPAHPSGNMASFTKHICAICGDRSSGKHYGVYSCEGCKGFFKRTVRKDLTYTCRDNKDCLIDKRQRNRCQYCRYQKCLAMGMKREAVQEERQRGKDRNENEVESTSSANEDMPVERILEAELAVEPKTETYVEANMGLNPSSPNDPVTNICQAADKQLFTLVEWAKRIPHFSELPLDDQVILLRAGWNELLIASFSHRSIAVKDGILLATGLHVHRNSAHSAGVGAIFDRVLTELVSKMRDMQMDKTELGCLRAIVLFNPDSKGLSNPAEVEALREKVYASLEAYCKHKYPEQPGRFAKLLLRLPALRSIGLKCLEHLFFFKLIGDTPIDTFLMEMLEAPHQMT
Source text: RXR agonists activate the RXR receptor when interacting with RXR by binding to its binding pocket. This activation can be independent of whether the agonist, while interacting with portions of the ligand binding pocket, also interacts with side pocket 1. Activation, also often referred to as transcriptional activation, of RXR by agonists can be measured by a number of commonly used assays where the effect of the agonist ligand interacting with the RXR ligand binding pocket is to stimulate or induce transcription of a gene or genes in a cell. In one particular embodiment, transient transfection experiments (as described essentially by Zhang, et al. (1996) Negative Regulation of Peroxisome Proliferator—Activated Receptor—γ Gene Expression Contributes to the Antiadipogenic effects of Tumor Necrosis Factor—α. Mol. Endo. 10:1457-1456) can be used. In these cases, full length RXR proteins are expressed in living cells. Alternatively, hybrid proteins that contain a portion of another DNA binding domain and the ligand binding portion of the human RXRα receptor can be expressed in living cells instead of the full length RXR protein. Such hybrid proteins can bind to and activate specific reporter genes introduced into the same living cell and activation of such reporter genes is measured. The assays described here are very commonly used today by people skilled in the art of molecular biology experimenting. Transient transection assays are often used instead of ligand binding assays and can serve to measure or estimate an affinity of an RXR agonist ligand for RXR protein. The effective dose fifty (ED50, also called EC50) is the concentration of the ligand necessary to lead to one half maximal activation of the reporter gene in a living cell. Compounds that show 60% of the activity of the agonist 9-cis retenoic acid at 10^−6 M can be considered an RXR activator/agonist. Compounds which show 70% 80% 90% of the activity of the agonist 9-cis retinoic acid are also provided.
To confirm that the computer modeling/design of a compound does result in an RXR activator or RXR agonist, i.e. a compound that leads to RXR activation or transcriptional activation, commonly used assays can be applied, where the effect of the agonist or activator, interacting with the RXR ligand binding pocket is to stimulate or induce transcription of a gene or genes in a cell. In one particular embodiment, transient transfection experiments (as described essentially by Zhang, et al. (1996) Negative Regulation of Peroxisome Proliferator—Activated Receptor—γ Gene Expression Contributes to the Antiadipogenic effects of Tumor Necrosis Factor—α. Mol. Endo. 10:1457-1456) can be used. In these cases, full length RXR proteins are expressed in living cells. Alternatively, hybrid proteins that contain a portion of another DNA, binding domain and the ligand binding portion of the human RXRα receptor can be expressed in living cells instead of the fall length RXR protein. Such hybrid proteins can bind to and activate specific reporter genes introduced into the same living cell and activation of such reporter genes is measured (Brand, A. H. & Perrimon, 1993, Development, 118:401-415; Moya-Camarena, S. Y. et.al., 1999, J. Lipid Res., 40:1426:1433; Yi, Y. W. et al., 2000, Biochem. Biophys. Res. Commun., 272:193-198, each are herein incorporated by reference at least for material related to reporter assays). These assays not only measure binding of the ligand to its target, which could also be measured by an in vitro binding assay, but also measure the agonistic or activator activity of the compound. In such an assay, new compounds are compared to a standard activator like compound I or the natural agonist of RXR: 9-cis retinoic acid (see Example 7). For instance, all compounds that show at a given concentration at least 60% of the activity of 9-cis retinoic acid can be considered useful activators.

[1] = test system: Mouse 3T3-L1 preadipocytes; assay: 3T3-L1 adipocyte differentiation assay; type: cell-based; conditions: 0.1 μM compared to Compound 1 at equal concentration; pre-adipocytes to adipocytes
Protocol: Mouse 3T3-L1 cells were grown in 96-well tissue culture plates containing growing medium (DME containing 10% calf serum (CS) plus glutamine-pen-strep) at a density of 3,000 cells/well. Two days after reaching confluence, cells are treated with the different compounds in DM (Day 0). Compound 1 is included in all the experiments, and its ability to differentiate 3T3-L1 cells at 0.1 μM is taken as reference for 100% differentiation. After 7 days the lipid content of the cells was determined.
Prior to testing compounds in vivo, they can be run through the in vitro adipocyte differentiation assay based on the protocol of Zhang, et al. (1996) Negative Regulation of Peroxisome Proliferator—Activated Receptor—γGene Expression Contributes to the Antiadipogenic effects of Tumor Necrosis Factor—α. Mol. Endo. 10:1457-1456, incorporated herein by reference. In short, mouse 3T3-L1 preadipocytes are grown in culture medium containing 10% calf serum supplemented with antibiotics. Two days after reaching confluence, cells are treated with the selected compound at different concentrations dissolved in medium containing 10% fetal calf serum supplemented with antibiotics and kept at 10% CO2. The test compounds are replaced every 2-3 days. Differentiation is assessed after 7 days of treatment by the lipid content in the cells, using the Triglyceride (INFINITY) reagent (Sigma Chemical, St. Louis, Mo.).
The ability of a compound to induce preadipocytes to differentiate into adipocytes is an indicator of its antidiabetic activity. This allows for screening many compounds in a simple in vitro assay, thus avoiding the task of testing all compounds in vivo. The adipocyte differentiation assay is based on the protocol of Zhang, et al. (1996) Negative Regulation of Peroxisome Proliferator-Activated Receptor-γ Gene Expression Contributes to the Antiadipogenic effects of Tumor Necrosis Factor—α. Mol. Endo. 10:1457-1456, incorporated herein by reference at least for material related to adipocyte differentiation assays. Mouse 3T3-L1 preadipocytes are grown in culture medium containing 10% calf serum supplemented with antibiotics. Two days after reaching confluence, cells are treated with the selected compound at different concentrations dissolved in medium containing 10% fetal calf serum supplemented with antibiotics and kept at 10% CO2. The test compounds are replaced every 2-3 days. Differentiation is assessed after 7 days of treatment by the lipid content in the cells, using the Triglyceride (INFINITY) reagent (Sigma Chemical, St. Louis, Mo.) (see FIG. 15).

KKA^y mice = assay: Antidiabetic activity in type 2 diabetic KKA^y mice; type: in vivo, mouse; conditions: for Efficacious in KKAy Mice: efficacious = lowers glucose without increasing triglycerides
Protocol: Prior to commencing treatment, all of the animals are bled from the tail vein and serum levels of glucose and triglyceride are measured in duplicate. The animals are then sorted into different treatment groups with equal average triglyceride levels. The animals are treated with a single daily oral dose of the test compound suspended in sesame oil (dose volume of 3 ml/kg).
In short, adult diabetic KKA^y mice are housed in a fixed 12—12-hr artificial light-dark cycle, and maintained on a standard rodent diet. Prior to commencing treatment, all of the animals are bled from the tail vein and serum levels of glucose and triglyceride are measured in duplicate. The animals are then sorted into different treatment groups with equal average triglyceride levels. The animals are treated with a single daily oral dose ranging from 3-30 mg/kg of the test compound suspended in sesame oil (dose volume of 3-5 ml/kg). Following one week of treatment the animals are bled from the tail vein and Serum glucose and triglycerides are measured in duplicate.
In this example, compound 1, which belongs to the novel subclass of RXR ligands is compared to a typical RXR ligand like compound 2 in the treatment of KKA^y mice.
For this study, adult diabetic KKA^y mice were housed in a fixed 12—12-hr artificial light-dark cycle, and maintained on a standard rodent diet. Prior to commencing treatment, all of the animals are bled from the tail vein and serum levels of glucose and triglyceride are measured in duplicate. The animals are then sorted into different treatment groups with equal average triglyceride levels. The animals are treated with a single daily oral dose of the test compound suspended in sesame oil (dose volume of 3 ml/kg).

BALB/c mice = assay: Effect on serum triglyceride levels in wild type BALB/c mice; type: in vivo, mouse; conditions: FIG. 13, p≦0.01
Protocol: The animals were treated with a single daily oral dose of the test compound suspended in sesame oil (dose volume of 5 ml/kg). […], Animas treated with 10 and 30 mg/kg of Compound 1, which are doses that are 30 and 100 times the efficacious does in diabetic db/db mice, respectively, caused no increase in serum triglyceride levels compared to vehicle treated control animals.
Test compounds are tested in wild type mice at 10-100 times the efficacious dose in diabetic mice. Typically, adult male BALB/c mice are housed in a fixed 12—12-hr artificial light-dark cycle, and maintained on a standard rodent diet. The animals are treated with a single daily oral dose of the test compound suspended in sesame oil (dose volume of 5 ml/kg) as also described in the examples. Approximately two weeks later the animals are bled from the tail vein, then necropsied following sacrifice by carbon dioxide asphyxiation. Several serum biochemical parameters are measured. Of special significance is the effect the selected compounds have on serum triglyceride levels compared to vehicle treated control animals.
For these studies, adult male BALB/c mice were housed in a fixed 12—12-hr artificial light-dark cycle, and maintained on a standard rodent diet. The animals were treated with a single daily oral dose of the test compound suspended in sesame oil (dose volume of 5 ml/kg).

db/db mice = conditions: at the concentrations used in the KKA^y study; cited from earlier work
[2] = following two weeks of treatment

| SMILES | RXR Activation (RXR receptor) | Differentiation Activity [1] | Efficacious in KKAy Mice (KKA^y mice) | also measured |
| --- | --- | --- | --- | --- |
| CC(C)Cc1cc(-c2cc(C=C3SC(=O)NC3=O)ccc2OC(F)(F)F)c2c(c1)C(C)(C)CO2 [Compound 9] | 125% | 30% | Yes | – |
| CCN1C(=O)CC(C)(C)c2cc(C)c(-c3cc(/C=C4\SC(=O)NC4=O)ccc3OC(F)(F)F)cc21 [Compound 8, 5-[3-(1-Ethyl-4,4,6-trimethyl-2-oxo-1,2,3,4-tetrahydro-quinolin-7-yl)-4-trifluoromethoxy-benzylidene]-thiazolidine-2,4-dione] | 90% | 95% | Yes | – |
| Cc1cc2c(cc1-c1cc(C=C3SC(=O)NC3=O)ccc1N(C)C)C(C)(C)CCC2(C)C [Compound 3] | 120% | 100% | Yes | – |
| COc1ccc(C=C2SC(=O)NC2=O)cc1-c1cc2c(cc1C)C(C)(C)CCC2(C)C [Compound 6] | >100% | >100% | No | – |
| Cc1cc2c(cc1C1(c3ccc(C(=O)O)cn3)CC1)C(C)(C)CCC2(C)C [Compound 5] | – | >100% | No | – |
| C=C(c1ccc(C(=O)O)cc1)c1cc2c(cc1C)C(C)(C)CCC2(C)C [Compound 2, reference compound] | – | >100% | No | serum triglyceride levels compared to vehicle treated control animals (BALB/c mice; 50 and 100 mg/kg, daily oral, statistically significant at 100 mg/kg): increase; serum triglyceride levels compared to vehicle treated controls (BALB/c mice; similar excess over its effective glucose lowering dose in db/db mice): statistically significant, dose dependent increase; glucose levels in type 2 diabetic db/db mice (db/db mice): lower; triglyceride levels in type 2 diabetic db/db mice (db/db mice): lower; serum glucose levels compared to vehicle treated controls (KKA^y mice; 5 and 15 mg/kg, single daily oral dose in sesame oil, FIG. 10): no difference; serum triglyceride levels compared to vehicle treated controls (KKA^y mice; 5 and 15 mg/kg, single daily oral dose, FIG. 11, statistically significant at 5 mg/kg): increase; glucose levels compared to vehicle treated controls (KKA^y mice; [2]): failed to decrease; triglyceride levels compared to vehicle treated controls (KKA^y mice; [2]): significantly increased |
| CO/N=C1\CCC(C)(C)c2cc(C)c(-c3cc(/C=C4\SC(=O)NC4=O)ccc3N(C)C)cc21 | – | – | – | melting point: 254 to 256 °C |
| CO/N=C1\CCC(C)(C)c2cc(C)c(-c3cc(/C=C4\SC(=O)NC4=O)ccc3OC(F)(F)F)cc21 [Example 8, 3-[(1-Oxo-4,4,6-trimethyl-1,2,3,4-tetrahydronaphthalene-7-yl)-O-methyloxime]-4-trifluoromethoxy-benzylidene-2,4-thiazolidinedione] | – | – | – | melting point: 224 °C |
| CON=C1CCC(C)(C)c2cc(C)c(-c3cc(C=C4SC(=O)NC4=O)ccc3OC(F)(F)F)cc21 [Compound 7] | 100% | 80% | Yes | glucose lowering activity (KKA^y mice; FIG. 16): glucose lowering activity; triglyceride lowering activity (KKA^y mice; FIG. 17): triglyceride lowering activity |
| Cc1cc2c(cc1-c1cc(C=C3SC(=O)NC3=O)ccc1O)C(C)(C)CCC2(C)C [Compound 4] | >100% | >100% | No | – |
| CO/N=C1\CCC(C)(C)c2cc(C)c(-c3cc(/C=C4\SC(=O)NC4=O)ccc3Cl)cc21 | – | – | – | melting point: 252 to 254 °C |
